Reference: US20260285850A1, “SUBSTITUTED OXAZOLIDINONES AND IMIDAZOLINONES AS HERBICIDES” (FMC CORPORATION, priority 2023, published 2026)

Tests used:
Type in all cases: in vivo
[1] = tested on: palmer (palmer amaranth, palmer pigweed, Amaranthus palmeri); experiment: Test A postemergence application, visual injury rating 0-100; conditions: for Amaranth, Palmer / Pigweed, Palmer plant response rating (0 to 100 scale): 0 is no effect, 100 is complete control
Procedure, shortened: (§1)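 Scale 0–100 (no effect to complete control), visual, versus untreated controls, read 10 days after application. Application: preemergence directed spray onto seeded loam–sand soil, or postemergence to young plants; formulation in non-phytotoxic solvent with surfactant.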

kochia (Bassia scoparia) [2] = experiment: as above; conditions: for Kochia plant response rating (0 to 100 scale): Postemergence
Procedure, shortened: as §1

[3] = tested on: green foxtail (Setaria viridis); experiment: as above; conditions: for Foxtail, Green plant response rating (0 to 100 scale): Postemergence
Procedure, shortened: as §1

[4] = tested on: wheat (Triticum aestivum); experiment: as above; conditions: for Wheat plant response rating (0 to 100 scale): Postemergence
Procedure, shortened: as §1

[5] = tested on: ryegrass, Italian (italian ryegrass, Lolium multiflorum); experiment: as above; conditions: for Ryegrass, Italian plant response rating (0 to 100 scale): Postemergence
Procedure, shortened: as §1

corn (Zea mays) [6] = experiment: as above; conditions: for Corn plant response rating (0 to 100 scale): Postemergence
Procedure, shortened: as §1

[7] = tested on: barnyardgrass (Echinochloa crus-galli); experiment: as above; conditions: for Barnyardgrass plant response rating (0 to 100 scale): Postemergence
Procedure, shortened: as §1

[8] = tested on: ragweed (common ragweed, Ambrosia artemisiifolia); experiment: as above; conditions: for Ragweed plant response rating (0 to 100 scale): Postemergence
Procedure, shortened: as §1

[9] = tested on: horseweed (Erigeron canadensis); experiment: as above; conditions: for Horseweed plant response rating (0 to 100 scale): Postemergence
Procedure, shortened: as §1

soybean (Glycine max) [10] = experiment: as above; conditions: for Soybean plant response rating (0 to 100 scale): Postemergence
Procedure, shortened: as §1

[11] = tested on: galium (catchweed bedstraw, Galium aparine); experiment: as above; conditions: Postemergence
Procedure, shortened: as §1

[12] = tested on: blackgrass (Alopecurus myosuroides); experiment: as above; conditions: for Blackgrass plant response rating (0 to 100 scale): Postemergence
Procedure, shortened: as §1

[13] = tested on: oat, wild (wild oat, Avena fatua); experiment: as above; conditions: for Oat, Wild plant response rating (0 to 100 scale): Postemergence
Procedure, shortened: as §1

[14] = tested on: ducksalad (Heteranthera limosa); experiment: Test B flooded paddy test, visual plant response rating 0-100; conditions: 250 g ai/ha, Flood, applied to paddy water, evaluated after 13 days
Procedure, shortened: (§2)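 Each species was raised to two leaves before flooding to a 3 cm depth and dosing the water with compound. Injury was assessed by eye after 13 days under greenhouse conditions.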

[15] = tested on: sedge, umbrella (small-flower umbrella sedge, Cyperus difformis); experiment: as above; conditions: 250 g ai/ha, Flood, applied to paddy water, evaluated after 13 days
Procedure, shortened: as §2

[16] = tested on: barnyardgrass (Echinochloa crusgalli); experiment: as above; conditions: 250 g ai/ha, Flood, applied to paddy water, evaluated after 13 days
Procedure, shortened: as §2

rice (Oryza sativa) = experiment: as above; conditions: 250 g ai/ha, Flood, applied to paddy water, evaluated after 13 days
Procedure, shortened: as §2

[17] = tested on: palmer (palmer amaranth, palmer pigweed, Amaranthus palmeri); experiment: Test A preemergence soil spray, visual injury rating 0-100; conditions: 10 days
Procedure, shortened: as §1

kochia (Bassia scoparia) [18] = experiment: as above; conditions: 10 days, 0 = no effect, 100 = complete control
Procedure, shortened: as §1

[19] = tested on: green foxtail (Setaria viridis); experiment: as above; conditions: 10 days
Procedure, shortened: as §1

[20] = tested on: wheat (Triticum aestivum); experiment: as above; conditions: 10 days
Procedure, shortened: as §1

[21] = tested on: ryegrass, Italian (italian ryegrass, Lolium multiflorum); experiment: as above; conditions: 10 days
Procedure, shortened: as §1

corn (Zea mays) [22] = experiment: as above; conditions: 10 days
Procedure, shortened: as §1

[23] = tested on: barnyardgrass (Echinochloa crus-galli); experiment: as above; conditions: 10 days
Procedure, shortened: as §1

soybean (Glycine max) [24] = experiment: as above; conditions: 10 days
Procedure, shortened: as §1

[25] = tested on: blackgrass (Alopecurus myosuroides); experiment: as above; conditions: 10 days
Procedure, shortened: as §1

[26] = tested on: oat, wild (wild oat, Avena fatua); experiment: as above; conditions: 10 days
Procedure, shortened: as §1

[27] = tested on: ragweed (common ragweed, Ambrosia artemisiifolia); experiment: as above; conditions: 10 days
Procedure, shortened: as §1

[28] = 125 g ai/ha, 10 days, 0 is no effect, 100 is complete control
[29] = 500 g ai/ha, 10 days, 0 is no effect, 100 is complete control
[30] = 125 g ai/ha, 0 = no effect, 100 = complete control
[31] = 500 g ai/ha, 0 = no effect, 100 = complete control
[32] = 62 g ai/ha, postemergence, 10 days, 0 = no effect, 100 = complete control
[33] = 16 g ai/ha, greenhouse 10 days, 0 no effect, 100 complete control
[34] = 62 g ai/ha, 0 = no effect, 100 = complete control

COCCOC(=O)C1C=CC(NC(=O)C2(C)CN(c3cc(F)cc(F)c3)C(=O)O2)C1 (stereo not drawn) [Compound 36]
80: Foxtail, Green plant response rating (0 to 100 scale) [3, 28] | Wheat plant response rating (0 to 100 scale) [4, 29] | Ryegrass, Italian plant response rating (0 to 100 scale) [5, 29] | Ragweed plant response rating (0 to 100 scale) [8, 29] | Soybean plant response rating (0 to 100 scale) (soybean (Glycine max) [10]; [29]) | Galium plant response rating (0 to 100 scale) [11, 29] | Amaranth, Palmer plant response rating (0 to 100 scale) [17, 30] | Soybean plant response rating (0 to 100 scale) (soybean (Glycine max) [24]; [31]) | Blackgrass plant response rating (0 to 100 scale) [25, 30]
100: Amaranth, Palmer / Pigweed, Palmer plant response rating (0 to 100 scale) ([1]; Postemergence, 500 g ai/ha, 10 days) | Corn plant response rating (0 to 100 scale) (corn (Zea mays) [6]; [28]) | Corn plant response rating (0 to 100 scale) (corn (Zea mays) [6]; [29]) | Barnyardgrass plant response rating (0 to 100 scale) [7, 28] | Barnyardgrass plant response rating (0 to 100 scale) [7, 29] | Blackgrass plant response rating (0 to 100 scale) [12, 28] | Blackgrass plant response rating (0 to 100 scale) [12, 29] | Oat, Wild plant response rating (0 to 100 scale) [13, 29] | Amaranth, Palmer plant response rating (0 to 100 scale) [17, 31] | Kochia plant response rating (0 to 100 scale) (kochia (Bassia scoparia) [18]; 500 g ai/ha) | Foxtail, Green plant response rating (0 to 100 scale) [19, 30] | Foxtail, Green plant response rating (0 to 100 scale) [19, 31] | Wheat plant response rating (0 to 100 scale) [20, 31] | Ryegrass, Italian plant response rating (0 to 100 scale) [21, 30] | Ryegrass, Italian plant response rating (0 to 100 scale) [21, 31] | Barnyardgrass plant response rating (0 to 100 scale) [23, 30] | Barnyardgrass plant response rating (0 to 100 scale) [23, 31] | Blackgrass plant response rating (0 to 100 scale) [25, 31]
60: Amaranth, Palmer / Pigweed, Palmer plant response rating (0 to 100 scale) ([1]; Postemergence, 125 g ai/ha, 10 days) | Kochia plant response rating (0 to 100 scale) (kochia (Bassia scoparia) [2]; [28]) | Ragweed plant response rating (0 to 100 scale) [8, 28] | Plant response rating, Barnyardgrass (0 to 100 scale, 0 is no effect and 100 is complete control) [16] | Soybean plant response rating (0 to 100 scale) (soybean (Glycine max) [24]; [30])
90: Foxtail, Green plant response rating (0 to 100 scale) [3, 29] | Ryegrass, Italian plant response rating (0 to 100 scale) [5, 28] | Horseweed plant response rating (0 to 100 scale) [9, 29] | Oat, Wild plant response rating (0 to 100 scale) [13, 28] | Plant response rating, Ducksalad (0 to 100 scale, 0 is no effect and 100 is complete control) [14] | Kochia plant response rating (0 to 100 scale) (kochia (Bassia scoparia) [18]; 125 g ai/ha) | Wheat plant response rating (0 to 100 scale) [20, 30] | Corn plant response rating (0 to 100 scale) (corn (Zea mays) [22]; [30]) | Corn plant response rating (0 to 100 scale) (corn (Zea mays) [22]; [31]) | Oat, Wild plant response rating (0 to 100 scale) [26, 30] | Oat, Wild plant response rating (0 to 100 scale) [26, 31]
70: Kochia plant response rating (0 to 100 scale) (kochia (Bassia scoparia) [2]; [29]) | Wheat plant response rating (0 to 100 scale) [4, 28] | Horseweed plant response rating (0 to 100 scale) [9, 28] | Soybean plant response rating (0 to 100 scale) (soybean (Glycine max) [10]; [28]) | Galium plant response rating (0 to 100 scale) [11, 28]
95: Plant response rating, Sedge, Umbrella (0 to 100 scale, 0 is no effect and 100 is complete control) [15]
55: Plant response rating, Rice (0 to 100 scale, 0 is no effect and 100 is complete control) (rice (Oryza sativa))

COC(=O)C1=CCC(NC(=O)C2(C)CN(c3cc(Cl)cc(Cl)c3)C(=O)O2)C1 (stereo not drawn) [Compound 148]
70: Corn plant response rating (0-100) (corn (Zea mays) [6]; [32]) | Blackgrass plant response rating (0-100) [12, 32]
20: Soybean plant response rating (0-100) (soybean (Glycine max) [24]; [34])
30: Foxtail, Green plant response rating (0-100) [3, 32] | Wheat plant response rating (0-100) [4, 32]
0: Kochia plant response rating (0 to 100 scale) (kochia (Bassia scoparia) [2]; [33]) | Foxtail, Green plant response rating (0 to 100 scale) [3, 33] | Ryegrass, Italian plant response rating (0 to 100 scale) [5, 33] | Corn plant response rating (0 to 100 scale) (corn (Zea mays) [6]; [33]) | Barnyardgrass plant response rating (0 to 100 scale) [7, 33] | Ragweed plant response rating (0-100) [8, 32] | Ragweed plant response rating (0 to 100 scale) [8, 33] | Horseweed plant response rating (0-100) [9, 32] | Horseweed plant response rating (0 to 100 scale) [9, 33] | Soybean plant response rating (0 to 100 scale) (soybean (Glycine max) [10]; [33]) | Blackgrass plant response rating (0 to 100 scale) [12, 33] | Oat, Wild plant response rating (0 to 100 scale) [13, 33] | Plant response rating, Ducksalad (0 to 100 scale, 0 is no effect and 100 is complete control) [14] | Plant response rating, Sedge, Umbrella (0 to 100 scale, 0 is no effect and 100 is complete control) [15] | Plant response rating, Barnyardgrass (0 to 100 scale, 0 is no effect and 100 is complete control) [16] | Plant response rating, Rice (0 to 100 scale, 0 is no effect and 100 is complete control) (rice (Oryza sativa)) | Pigweed, Palmer plant response rating ([17]; 16 g ai/ha, 0 to 100 scale) | Pigweed, Palmer plant response rating (0-100) [17, 34] | Foxtail, Green plant response rating ([19]; 16 g ai/ha, 0 to 100 scale) | Foxtail, Green plant response rating (0-100) [19, 34] | Wheat plant response rating ([20]; 16 g ai/ha, 0 to 100 scale) | Wheat plant response rating (0-100) [20, 34] | Ryegrass, Italian plant response rating ([21]; 16 g ai/ha, 0 to 100 scale) | Ryegrass, Italian plant response rating (0-100) [21, 34] | Corn plant response rating (corn (Zea mays) [22]; 16 g ai/ha, 0 to 100 scale) | Corn plant response rating (0-100) (corn (Zea mays) [22]; [34]) | Barnyardgrass plant response rating ([23]; 16 g ai/ha, 0 to 100 scale) | Barnyardgrass plant response rating (0-100) [23, 34] | Ragweed plant response rating ([27]; 16 g ai/ha, 0 to 100 scale) | Ragweed plant response rating (0-100) [27, 34] | Soybean plant response rating (soybean (Glycine max) [24]; 16 g ai/ha, 0 to 100 scale) | Blackgrass plant response rating ([25]; 16 g ai/ha, 0 to 100 scale) | Blackgrass plant response rating (0-100) [25, 34] | Oat, Wild plant response rating ([26]; 16 g ai/ha, 0 to 100 scale) | Oat, Wild plant response rating (0-100) [26, 34]
50: Ryegrass, Italian plant response rating (0-100) [5, 32] | Soybean plant response rating (0-100) (soybean (Glycine max) [10]; [32])
40: Galium plant response rating (0 to 100 scale) [11, 33]
90: Barnyardgrass plant response rating (0-100) [7, 32]
80: Pigweed, Palmer plant response rating (0-100) [1, 32] | Kochia plant response rating (0-100) (kochia (Bassia scoparia) [2]; [32])
10: Pigweed, Palmer plant response rating (0 to 100 scale) ([1]; Postemergence, 16 g ai/ha, greenhouse 10 days, 0 no effect, 100 complete control) | Wheat plant response rating (0 to 100 scale) [4, 33] | Oat, Wild plant response rating (0-100) [13, 32]
